Converted amounts (≈) assume the structure as drawn.
Tests used:
[1] = Aqueous solubility in distilled–deionized water; assay type: physicochemical; details: for Reduction in solubility: DDW, relative to CDF; for Reduction in solubility / Solubility in DDW: 37°C; for Solubility in DDW: distilled–deionized water, 24 h
Tissue = assay type: in vitro ADME, rabbit; details: relative to parent CDF

Reduction in solubility [1] | Solubility in DDW [1] [mg/mL] | Fold Increase in retina–choroid partition coefficient (Tissue) [fold] | solubility at 24 h ([1]; distilled-deionized water) [mg/mL] | SMILES
about 56 fold | 1.27 ± 0.48 (≈ 3.68 mM) | – | – | CCCCCCOP1(=O)COC(Cn2ccc(N)nc2=O)CO1 (stereo not drawn) [C6-cCDF, C6-cyclic Cidofovir]
– | – | 1 | 72.4 ± 3.33 (≈ 259 mM) | Nc1ccn(C[C@@H](CO)OCP(=O)(O)O)c(=O)n1 [CDF, Cidofovir, reference compound]
~74 fold | 0.95 ± 0.37 (≈ 2.21 mM) | – | – | CCCCCCCCCCCCOP1(=O)CO[C@@H](Cn2ccc(N)nc2=O)CO1 (stereo partly drawn) [C12-cCDF, C12-cyclic Cidofovir]

Source: article PMC4516231 (Journal of pharmaceutical sciences, 2012)
